# Measurements taken from patent publication US9155309B2, “Virus inactivating sheet” (priority 2009, dated 2015).
# Like-named read-outs stand apart in the source and are kept apart here.
# Tested on: influenza virus (influenza A/Kitakyusyu/159/93(H3N2))
# Format: cell-based
# Conditions: 10 minutes at room temperature, PBS control 128
smiles,measurement,setting,value
"[Cu+].[Cu+].[S-2] [compound 26, COPPER(I) SULFIDE]",HA TITER,material concentration 0.5 percent by mass in PBS,64
same,HA TITER,material concentration 5 percent by mass in PBS,16
